The subject of one data set is Moraxella catarrhalis. Kind of data set: In vitro antibacterial activity against Moraxella catarrhalis 30607 (b-lactamase+). It is filed as functional.
The test system of the next data set is Haemophilus influenzae. Briefly: In vitro antibacterial activity against ampicillin resistant Haemophilus influenzae 30063 (AMPR b-lactamase+). The format is functional.
In data set [1] the test system is Staphylococcus aureus. Kind of data set: In vitro antibacterial activity against Staphylococcus aureus UC12673 (SA2). The format is functional.
Another data set has as its system Streptococcus pneumoniae. Kind of data set: In vitro antibacterial activity against penicillin susceptible Streptococcus pneumoniae UC19912 (PSSP). The format is functional.
Another data set has as its system Enterococcus faecalis. Briefly: In vitro antibacterial activity against vancomycin susceptible Enterococcus faecalis UC19217 (VSEF). It is filed as functional.
For data set [2], the system named is Staphylococcus aureus. Kind of data set: In vitro antibacterial activity against methicillin susceptible Staphylococcus aureus UC19213 (MSSA); (SA1). The format is functional.
For data set [3], the system named is Staphylococcus epidermidis. Kind of data set: In vitro antibacterial activity against methicillin resistant Staphylococcus epidermis US 12084 (MRSE). The format is functional.
The nature of data set [4]: Maximum plasma concentration (Cmax) of compound (19.2 mg/kg) after po administration was determined Sprague-Dawley rat. It is filed as ADME, organism-based. Also on record: dose 19.2 mg/kg, route oral.
Data set [5] in a line: Tmax of compound (19.2 mg/kg) after po administration was determined in Sprague-Dawley rat. It is filed as ADME, organism-based. The following applies: in vivo.
Data set [6] can be described thus: Clearance (Cl) of compound (9.83 mg/kg) after iv administration was determined in Sprague-Dawley rat. It is filed as ADME, organism-based. To be noted: in vivo.
A short description of data set [7]: Maximum plasma concentration (Cmax) of compound (9.83 mg/kg) after iv administration was determined Sprague-Dawley rat. The format is ADME, organism-based. Set-up: dose 9.83 mg/kg, route intravenous.
Data set [8] can be described thus: Half life of compound (9.83 mg/kg) after iv administration was determined in Sprague-Dawley rat. It is filed as ADME, organism-based. The following applies: in vivo.
A further data set relates to Mus musculus. Briefly: In vivo efficacy of compound against Staphylococcus aureus UC9213 was determined after peroral administration in mouse. The format is functional. The following applies: po.
Data set [9] in a line: Oral bioavailability of compound (19.2 mg/kg) after po administration was determined in Sprague-Dawley rat. To be noted: in vivo. The format is ADME, organism-based.
Data set [10] is described as follows: Steady state volume distribution (Vss) of compound(9.83 mg/kg) after iv administration was determined in Sprague-Dawley rat. The format is ADME, organism-based. To be noted: in vivo, read-out: Vss.
Data set [11] is described as follows: Half life of compound (19.2 mg/kg) after po administration was determined in Sprague-Dawley rat. The format is ADME, organism-based. To be noted: in vivo.

In brackets after ≈: the same amount, converted by molar mass. Where only a bound is given, the exact number is not on record here.

The record followed here is ChEMBL document CHEMBL1136462, “The effect of remote chirality on the antibacterial activity of indolinyl, tetrahydroquinolyl and dihydrobenzoxazinyl oxazolidinones” (Bioorg Med Chem Lett, 2003).

As to `CC(=O)NC[C@H]1CN(c2ccc3c(c2)CC[C@@H](C)N3C=O)C(=O)O1`, the MIC in the data set with Moraxella catarrhalis is 4 µg/mL (≈ 12.1 µM); in the data set on Haemophilus influenzae, 32 µg/mL (≈ 96.6 µM); in the data set on Staphylococcus aureus [1], 1 µg/mL (≈ 3.02 µM); against Streptococcus pneumoniae, less than 0.5 µg/mL; against Enterococcus faecalis, 1 µg/mL (≈ 3.02 µM); in the data set on Staphylococcus aureus [2] it was 2 µg/mL (≈ 6.04 µM). This compound also had an MIC in data set [3] of less than 0.5 µg/mL.
Turning to `C/C(S)=N/C[C@H]1CN(c2ccc3c(c2)OC[C@@H](C)N3C=O)C(=O)O1`, the MIC is 2 µg/mL (≈ 5.72 µM) with Moraxella catarrhalis; 32 µg/mL (≈ 91.6 µM) in the data set on Haemophilus influenzae; less than 0.5 µg/mL with Staphylococcus aureus [1]; 0.5 µg/mL (≈ 1.43 µM) in the data set on Streptococcus pneumoniae; 1 µg/mL (≈ 2.86 µM) against Enterococcus faecalis; less than 0.5 µg/mL against Staphylococcus aureus [2]. In data set [3], this compound came in with an MIC of less than 0.5 µg/mL.
For the compound `CC(=O)NC[C@H]1CN(c2ccc3c(c2)C[C@H](C)N3C=O)C(=O)O1`, the MIC against Moraxella catarrhalis was greater than 64 µg/mL; against Haemophilus influenzae, greater than 64 µg/mL; in the data set on Staphylococcus aureus [1], 8 µg/mL (≈ 25.2 µM); in the data set with Streptococcus pneumoniae, 4 µg/mL (≈ 12.6 µM); in the data set on Enterococcus faecalis, 16 µg/mL (≈ 50.4 µM); in the data set with Staphylococcus aureus [2], 8 µg/mL (≈ 25.2 µM). Besides, the MIC in data set [3] is 4 µg/mL (≈ 12.6 µM).
For the compound `CC(=O)NC[C@H]1CN(c2ccc3c(c2)C[C@H](C)N3C(=O)CO)C(=O)O1`, the MIC was 16 µg/mL (≈ 46.1 µM) in the data set with Moraxella catarrhalis; greater than 16 µg/mL against Haemophilus influenzae; 8 µg/mL (≈ 23 µM) with Staphylococcus aureus [1]; 1 µg/mL (≈ 2.88 µM) against Streptococcus pneumoniae; 8 µg/mL (≈ 23 µM) with Enterococcus faecalis; 8 µg/mL (≈ 23 µM) in the data set with Staphylococcus aureus [2]. Moreover, the MIC in data set [3] came to 2 µg/mL (≈ 5.76 µM).
Consider `C/C(S)=N/C[C@H]1CN(c2ccc3c(c2)C[C@@H](C)N3C=O)C(=O)O1`, for which the figures for the Cmax in [4] and in data set [7] were 1130 ng/mL and 13600 ng/mL, respectively. In addition, the MIC with Moraxella catarrhalis is 1 µg/mL (≈ 3 µM); against Haemophilus influenzae, 2 µg/mL (≈ 6 µM); with Staphylococcus aureus [1], less than 0.5 µg/mL; against Streptococcus pneumoniae it was less than 0.5 µg/mL; with Enterococcus faecalis it was less than 0.5 µg/mL; in the data set with Staphylococcus aureus [2], less than 0.5 µg/mL. The compound also returned an MIC in data set [3] of less than 0.5 µg/mL. For the same compound, the time to peak (Tmax) in data set [5] is 30 min. This compound had a clearance in data set [6] of 28.9 mL/min/kg. Besides, the half-life in [8] was 6 min; in data set [11], 36.6 min. For the same compound, the ED50 in the data set with Mus musculus was 7.5 mg/kg. This compound yielded a bioavailability in [9] of 30.8%. Further, in [10], the Vd was 0.64 L/kg.
Turning to `CC(=O)NC[C@H]1CN(c2ccc3c(c2)OC[C@H](C)N3C=O)C(=O)O1`, the MIC against Moraxella catarrhalis is 32 µg/mL (≈ 96 µM); against Haemophilus influenzae, 64 µg/mL (≈ 192 µM); in the data set on Staphylococcus aureus [1] it was 8 µg/mL (≈ 24 µM); against Streptococcus pneumoniae, less than 4 µg/mL; in the data set with Enterococcus faecalis, 32 µg/mL (≈ 96 µM); in the data set on Staphylococcus aureus [2], 8 µg/mL (≈ 24 µM). In data set [3], this compound yielded an MIC of less than 4 µg/mL.
`CC(=O)NC[C@H]1CN(c2ccc3c(c2)C[C@@H](C)N3)C(=O)O1`: the MIC was greater than 61 µg/mL against Moraxella catarrhalis; greater than 64 µg/mL against Haemophilus influenzae; 8 µg/mL (≈ 27.6 µM) against Staphylococcus aureus [1]; 4 µg/mL (≈ 13.8 µM) in the data set with Streptococcus pneumoniae; 16 µg/mL (≈ 55.3 µM) in the data set with Enterococcus faecalis; 8 µg/mL (≈ 27.6 µM) against Staphylococcus aureus [2]. In data set [3], this compound had an MIC of 4 µg/mL (≈ 13.8 µM).
As for `CC(=O)NC[C@H]1CN(c2ccc3c(c2)C[C@H](C)N3)C(=O)O1`, the MIC was greater than 64 µg/mL in the data set with Moraxella catarrhalis; greater than 64 µg/mL against Haemophilus influenzae; 32 µg/mL (≈ 111 µM) in the data set on Staphylococcus aureus [1]; 64 µg/mL (≈ 221 µM) against Enterococcus faecalis; 32 µg/mL (≈ 111 µM) against Staphylococcus aureus [2]; 16 µg/mL (≈ 55.3 µM) in data set [3].
